Earlier results in US20060166974A1, “Azabenzoxazoles for the treatment of CNS disorders” (Pfizer Inc., priority 2004, published 2006).

half-life (in vivo): 6 to 7 h | protein binding (in vivo): extensive | Oral bioavailability (taken with food): approximately 60%
Compound: O=C1Cc2cc(CCN3CCN(c4nsc5ccccc45)CC3)c(Cl)cc2N1 [Ziprasidone, 5-[2-[4-(1,2-benzisothiazol-3-yl)piperazin-1-yl]ethyl]-6-chloroindolin-2-one]
